From patent EP4707280A1, “1,4-CINEOLE DERIVATIVE AND INTERMEDIATE THEREOF, HERBICIDE CONTAINING SAID DERIVATIVE AS ACTIVE INGREDIENT, METHOD FOR USING HERBICIDE, AND METHOD FOR PREPARING AGROCHEMICAL COMPOSITION” (HOKKO CHEMICAL INDUSTRY CO., LTD., priority 2023, dated 2024)

Key:
Type in all cases: in vivo
[1] = system: Echinochloa crus-galli var. formosensis; experiment: Test Example 5: herbicidal effect test by soil application in paddy rice (low dose); settings: Echinochloa crus-galli, soil, 336 h; 7.5 g per 10 ares; applied immediately after sowing, flooded pots; 14 days after application; read-out: weed inhibition rate
Procedure, shortened: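 Paddy soil in Wagner pots was fertilized (N:P:K 16:16:16), puddled, sown with 30 seeds per weed species at 0–1 cm, then flooded to ~3 cm in a glass greenhouse. Emulsifiable concentrate diluted in water was dropper-applied into floodwater immediately, at 7.5 g active ingredient per 10 ares; duplicates, scored at 14 days.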

[2] = system: Echinochloa crus-galli var. formosensis; experiment: Test Example 2: herbicidal effect test by application during growth period of paddy rice; settings: Echinochloa crus-galli; 120 g per 10 ares; applied seven days after sowing, flooded pots; 14 days after application; read-out: weed inhibition rate
Procedure, shortened: (§1)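 Paddy soil in Wagner pots was puddled with N:P:K 16:16:16 fertilizer, sown with 30 weed seeds per species at 0–1 cm and flooded to about 3 cm. Seven days after sowing, a water-diluted emulsifiable concentrate was dropped onto the water at 120 g active ingredient per 10 ares. Weed inhibition (%) was scored at 14 days, in duplicate.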

Digitaria ciliaris = experiment: Test Example 7: herbicidal effect test by soil application in upland field (low dose); settings: Digitaria ciliaris, 7.5 g per 10 ares, sprayed one day after sowing, 14 days after application, read-out: weed inhibition rate
Procedure, shortened: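 Pre-emergence soil application: upland alluvial loam pots sown with weed seeds mixed into the top 1 cm; one day after sowing, a water-diluted emulsifiable concentrate was sprayed on the soil at 100 L per 10 a, delivering 7.5 g active ingredient per 10 a. Weed inhibition rate (%) scored 14 days after application, duplicate pots.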

Scirpus juncoides [3] = experiment: Test Example 2: herbicidal effect test by application during growth period of paddy rice; settings: Schoenoplectiella juncoides; 120 g per 10 ares; applied seven days after sowing, flooded pots; 14 days after application; read-out: weed inhibition rate
Procedure, shortened: as §1

Monochoria vaginalis [4] = experiment: as above; settings: Pontederia vaginalis; 120 g per 10 ares; applied seven days after sowing, flooded pots; 14 days after application; read-out: weed inhibition rate
Procedure, shortened: as §1

Scirpus juncoides [5] = experiment: Test Example 5: herbicidal effect test by soil application in paddy rice (low dose); settings: Schoenoplectiella juncoides, 336 h, 7.5 g per 10 ares, applied immediately after sowing, flooded pots, 14 days after application, read-out: weed inhibition rate
Description: (§2) The present test was conducted in duplicate for each chemical concentration group, and the weed inhibition rate (%) was determined 14 days after chemical application using the following formula (Math. 1). [formula]
(§3) Wagner pots with an area of […] were filled with paddy soil, followed by addition of water and incorporation of chemical fertilizer (N:P:K = 16:16:16), after which puddling was performed. After that, seeds of Echinochloa crus-galli var. formosensis, broad-leaved weeds (Monochoria vaginalis), and Scirpus juncoides were sown at a depth of 0 cm to 1 cm, 30 seeds each. Immediately after sowing, the pots were flooded and a water depth of approximately 3 cm was maintained. Subsequent management was conducted in a glass greenhouse. Immediately thereafter, an emulsifiable concentrate prepared according to Formulation Example 5 using the compound shown below was diluted with water, and a specified amount of the diluted solution was applied by dropper. The amount of the active ingredient to be applied was equivalent to 7.5 g per 10 ares.
(§4) The present test was conducted in duplicate for each chemical concentration group, and the herbicidal effect was evaluated 14 days after chemical application using the same criteria as in Test Example 1.

Monochoria vaginalis [6] = experiment: as above; settings: Pontederia vaginalis, 336 h, 7.5 g per 10 ares, applied immediately after sowing, flooded pots, 14 days after application, read-out: weed inhibition rate
Description: as §2, §3, §4

Cc1ccccc1CO[C@@H]1C[C@]2(C(C)C)O[C@@]1(C)C[C@@H]2Br [1-16, (1S,2R,4R,5S)-5-bromo-1-methyl-2-[(2-methylphenyl)methoxy]-4-isopropyl-7-oxabicyclo[2.2.1]heptane]
≥ 80%: inhibition at 75 g/ha [1] | inhibition at 1200 g/ha [2]

CC(C)[C@]12C[C@@H](OCc3ccccc3F)[C@](C)(C[C@@H]1OS(=O)(=O)C(F)(F)F)O2 [1-525, (1R,2S,4S,5R)-5-((2-fluorobenzyl)oxy)-1-isopropyl-4-methyl-7-oxabicyclo[2.2.1]heptan-2-yl trifluoromethanesulfonate]
≥ 80%: inhibition at 75 g/ha [1] | inhibition at 75 g/ha (Digitaria ciliaris) | inhibition at 1200 g/ha [2]

Cc1cccc(CO[C@@H]2C[C@]3(C(C)C)O[C@@]2(C)C[C@@H]3Br)c1 [1-680, (1S,2R,4R,5S)-5-bromo-1-methyl-2-[(3-methylphenyl)methoxy]-4-isopropyl-7-oxabicyclo[2.2.1]heptane]
≥ 80%: inhibition at 75 g/ha [1] | inhibition at 75 g/ha (Digitaria ciliaris) | inhibition at 1200 g/ha [2] | inhibition at 1200 g/ha (Scirpus juncoides [3]) | inhibition at 1200 g/ha (Monochoria vaginalis [4])

CC(C)[C@]12C[C@@H](OCc3cccc(Cl)c3)[C@](C)(C[C@@H]1Br)O2 [1-692, (1S,2R,4R,5S)-5-bromo-2-[(3-chlorophenyl)methoxy]-1-methyl-4-isopropyl-7-oxabicyclo[2.2.1]heptane]
≥ 80%: inhibition at 75 g/ha [1] | inhibition at 75 g/ha (Digitaria ciliaris) | inhibition at 75 g/ha (Scirpus juncoides [5]) | inhibition at 75 g/ha (Monochoria vaginalis [6]) | inhibition at 1200 g/ha [2] | inhibition at 1200 g/ha (Scirpus juncoides [3]) | inhibition at 1200 g/ha (Monochoria vaginalis [4])

CC(C)[C@]12C[C@@H](OCc3ccc(Cl)cc3)[C@](C)(C[C@@H]1Br)O2 [1-693, (1S,2R,4R,5S)-5-bromo-2-[(4-chlorophenyl)methoxy]-1-methyl-4-isopropyl-7-oxabicyclo[2.2.1]heptane]
≥ 80%: inhibition at 75 g/ha [1] | inhibition at 1200 g/ha [2] | inhibition at 1200 g/ha (Scirpus juncoides [3]) | inhibition at 1200 g/ha (Monochoria vaginalis [4])

CC(C)[C@]12C[C@@H](OCc3ccc(Cl)cc3Cl)[C@](C)(C[C@@H]1Br)O2 [1-717, (1S,2R,4R,5S)-5-bromo-2-[(2,4-dichlorophenyl)methoxy]-1-methyl-4-isopropyl-7-oxabicyclo[2.2.1]heptane]
≥ 80%: inhibition at 75 g/ha [1] | inhibition at 1200 g/ha [2] | inhibition at 1200 g/ha (Scirpus juncoides [3]) | inhibition at 1200 g/ha (Monochoria vaginalis [4])

Cc1ccccc1CO[C@@H]1C[C@]2(C(C)C)O[C@@]1(C)C[C@@H]2I [1-741, (1S,2R,4R,5S)-5-iodo-1-methyl-2-[(2-methylphenyl)methoxy]-4-isopropyl-7-oxabicyclo[2.2.1]heptane]
≥ 80%: inhibition at 75 g/ha [1] | inhibition at 75 g/ha (Digitaria ciliaris) | inhibition at 75 g/ha (Scirpus juncoides [5]) | inhibition at 75 g/ha (Monochoria vaginalis [6]) | inhibition at 1200 g/ha [2] | inhibition at 1200 g/ha (Scirpus juncoides [3]) | inhibition at 1200 g/ha (Monochoria vaginalis [4])

CC(C)CC1C[C@]2(C)O[C@@]1(C(C)C)C[C@H]2OCc1ccccc1F (stereo partly drawn) [1-915, (1S,2R,4R)-2-((2-fluorobenzyl)oxy)-5-isobutyl-4-isopropyl-1-methyl-7-oxabicyclo[2.2.1]heptane]
≥ 80%: inhibition at 75 g/ha [1] | inhibition at 75 g/ha (Scirpus juncoides [5]) | inhibition at 1200 g/ha [2] | inhibition at 1200 g/ha (Scirpus juncoides [3]) | inhibition at 1200 g/ha (Monochoria vaginalis [4])

COC1(OC)C[C@]2(C)O[C@@]1(C(C)C)C[C@H]2OCc1ccccc1F [1-935, (1R,4S,5R)-5-((2-fluorobenzyl)oxy)-1-isopropyl-2,2-dimethoxy-4-methyl-7-oxabicyclo[2.2.1]heptane]
≥ 80%: inhibition at 75 g/ha [1] | inhibition at 75 g/ha (Digitaria ciliaris) | inhibition at 1200 g/ha [2] | inhibition at 1200 g/ha (Scirpus juncoides [3]) | inhibition at 1200 g/ha (Monochoria vaginalis [4])

CC(C)[C@]12C[C@@H](OCc3ccccc3F)[C@](C)(C[C@@H]1OCC1CC1)O2 [1-1603, (1S,2R,4R,5S)-5-(cyclopropylmethoxy)-2-[(2-fluorophenyl)methoxy]-1-methyl-4-isopropyl-7-oxabicyclo[2.2.1]heptane]
≥ 80%: inhibition at 75 g/ha [1] | inhibition at 75 g/ha (Digitaria ciliaris) | inhibition at 75 g/ha (Scirpus juncoides [5]) | inhibition at 75 g/ha (Monochoria vaginalis [6]) | inhibition at 1200 g/ha [2] | inhibition at 1200 g/ha (Scirpus juncoides [3]) | inhibition at 1200 g/ha (Monochoria vaginalis [4])

Cc1cccc(C)c1CO[C@@H]1C[C@]2(C(C)C)O[C@@]1(C)CC2=O [2-5, (1R,4S,5R)-5-((2,6-dimethylbenzyl)oxy)-1-isopropyl-4-methyl-7-oxabicyclo[2.2.1]heptan-2-one]
≥ 80%: inhibition at 75 g/ha [1] | inhibition at 75 g/ha (Digitaria ciliaris) | inhibition at 75 g/ha (Scirpus juncoides [5]) | inhibition at 75 g/ha (Monochoria vaginalis [6]) | inhibition at 1200 g/ha [2] | inhibition at 1200 g/ha (Monochoria vaginalis [4])

CC(C)[C@]12C[C@@H](OCc3cccc(F)c3F)[C@](C)(CC1=O)O2 [2-14, (1R,4S,5R)-5-((2,3-difluorobenzyl)oxy)-1-isopropyl-4-methyl-7-oxabicyclo[2.2.1]heptan-2-one]
≥ 80%: inhibition at 75 g/ha [1] | inhibition at 75 g/ha (Digitaria ciliaris) | inhibition at 75 g/ha (Scirpus juncoides [5]) | inhibition at 75 g/ha (Monochoria vaginalis [6]) | inhibition at 1200 g/ha [2]

CC(C)[C@]12C[C@@H](OCc3cc(F)ccc3F)[C@](C)(CC1=O)O2 [2-18, (1R,4S,5R)-5-((2,5-difluorobenzyl)oxy)-1-isopropyl-4-methyl-7-oxabicyclo[2.2.1]heptan-2-one]
≥ 80%: inhibition at 75 g/ha [1] | inhibition at 75 g/ha (Digitaria ciliaris) | inhibition at 1200 g/ha [2] | inhibition at 1200 g/ha (Scirpus juncoides [3]) | inhibition at 1200 g/ha (Monochoria vaginalis [4])

CC(C)[C@]12C[C@@H](OCc3c(Cl)cccc3Cl)[C@](C)(CC1=O)O2 [2-26, (1R,4S,5R)-5-((2,6-dichlorobenzyl)oxy)-1-isopropyl-4-methyl-7-oxabicyclo[2.2.1]heptan-2-one]
≥ 80%: inhibition at 75 g/ha [1] | inhibition at 75 g/ha (Digitaria ciliaris) | inhibition at 1200 g/ha [2]

Cc1cccc(C)c1CO[C@@H]1C[C@@]2(C(C)C)C=C[C@]1(C)O2 [3-3, (1R,4S,5R)-5-[(2,6-dimethylphenyl)methoxy]-4-methyl-1-isopropyl-7-oxabicyclo[2.2.1]hept-2-ene]
≥ 80%: inhibition at 75 g/ha [1] | inhibition at 75 g/ha (Scirpus juncoides [5]) | inhibition at 75 g/ha (Monochoria vaginalis [6]) | inhibition at 1200 g/ha [2] | inhibition at 1200 g/ha (Scirpus juncoides [3])
